Here are results for 54 molecules from PubChem BioAssay AID2740 (NMMLSC, 2010).

The structures appear in SMILES notation. Activity calls are given as the source filed them.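 How the source made its calls: active means compounds whose fitted half-maximal concentration for changing the GFP signal is at or below a set limit; inactive means the rest.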

The experiment is described as follows: TOR pathway RPL19A-GFP modulators, concentration series – cell-based, S. cerevisiae, flow cytometry, MLPCN hits, dose response (AID 2740).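 Further: background is signal of the same compound in parental non-GFP s288c yeast.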 The following applies: S. cerevisiae RPL19A-GFP strain, flow cytometry fluorescence, 3 h; at 33 µM (top of the series). A general note: In flow cytometry, cells or beads pass a laser one at a time.
`C=CCn1c(C)c(/C=C/c2cc[n+](C)cc2)c2ccccc21`: the GFP fluorescence, lower = active (kMESF (background-subtracted)) is 52.8 (inactive).
Next, `COc1cc(/C=C2\C(=O)ON=C2c2ccccc2)cc(Br)c1O`: 37.3 (inactive); `Cc1ccc(/C=C2/SC(=S)N(C3CCCCC3)C2=O)o1`: 38.3 (inactive).
The result for `Cc1cccc(N=C2NC(=O)/C(=C/C=C/c3ccco3)S2)c1C` reads 34.7 (inactive); that for `C/C(=N\NC(=O)c1cc2ccccc2cc1O)c1ccccn1`, 45.5 (inactive).
For the molecule `COC(=O)/C(=C/c1c[nH]c2ccccc12)[N+](=O)[O-]`, the GFP fluorescence, lower = active (kMESF (background-subtracted)) was 42.8 (inactive).
Next, `Cc1ccccc1OCC(=O)NNC(=S)NC(=O)c1ccco1`: 44.1 (inactive); `CCn1c(=O)c(C(C)=O)c(O)c2ccccc21`: 47 (inactive); `O=C(c1ccccc1)c1ccccc1N1C(=O)C=CC1=O`: 26 (inactive).
With `Cc1cccc(C(=O)NC(=S)NNC(=O)Cc2ccccc2)c1`, the GFP fluorescence, lower = active (kMESF (background-subtracted)) was 52.4 (inactive).
Next, `Cc1cc(C)c(S(=O)(=O)ON2C(=O)c3ccccc3C2=O)cc1C`: 25.8 (inactive).
`CCOC(=O)CS(=O)(=O)c1nc(-c2ccccc2)cc(C(F)(F)F)n1`: the GFP fluorescence, lower = active (kMESF (background-subtracted)) is 44.1 (inactive).
Next, `O=[N+]([O-])c1c(Nc2ccccn2)cc(Cl)c2nonc12`: 68.3 (inactive); `O=C(O)/C=C/C(=O)c1ccc2c(c1)CCc1ccccc1-2`: 16.8 (inactive).
Regarding `O=[N+]([O-])c1ccc(Sc2nc3ccccc3o2)c([N+](=O)[O-])c1`, the GFP fluorescence, lower = active (kMESF (background-subtracted)) was 45.5 (inactive).
The result for `CC(=O)Oc1oc(-c2ccccc2)nc1C=Nc1ccccc1` reads 39.7 (inactive); that for `O=C(Nc1nc(-c2ccccn2)cs1)C1COc2ccccc2O1` (centres undefined), 21.1 (inactive); that for `COc1cccc(N=Cc2nc(-c3ccccc3)oc2OC(C)=O)c1`, 41.9 (inactive).
Next, `Cc1ccc(-c2nc(C)sc2CC(=O)Nc2nnc(C)s2)cc1`: 37.9 (inactive).
Next, `O=C(Oc1ccnc2cc(Cl)ccc12)N1CCCCCC1`: 25.6 (inactive); `O=C(/C=C/c1ccnc2ccccc12)c1cccs1`: 38 (inactive); `CCOC(=O)Cn1cc(/C=C/[N+](=O)[O-])c2ccccc21`: 39.5 (inactive).
For `CCCc1cc(=O)oc2cc(C)cc(OCC(=O)NC3CC3)c12`, the GFP fluorescence, lower = active (kMESF (background-subtracted)) was 39 (inactive).
`CCN(CC(=O)Nc1cc(S(=O)(=O)N2CCOCC2)ccc1Cl)Cc1ccccc1`: the GFP fluorescence, lower = active (kMESF (background-subtracted)) was 43.2 (inactive).
Next, `CCCc1cc(N2CCN(c3ccccn3)CC2)n2nc(C)c(-c3ccccc3)c2n1`: 38.1 (inactive); `Cc1cccc(C(=O)NNC(=S)NC(=O)c2ccccc2)c1`: 48.3 (inactive).
As to `CC(=O)Oc1ccc(N2C(=O)C3C4C=CC(O4)C3C2=O)cc1` (centres undefined), the GFP fluorescence, lower = active (kMESF (background-subtracted)) was 48.8 (inactive).
Take `CCCCCn1c(=O)c(C(=O)Nc2nc3ccccc3[nH]2)c(O)c2ccccc21`: the GFP fluorescence, lower = active (kMESF (background-subtracted)) was 43.6 (inactive).
As for `CC(=O)NN1C(=O)/C(=C/c2ccc(Br)o2)SC1=S`, the GFP fluorescence, lower = active (kMESF (background-subtracted)) is 40.5 (inactive).
Turning to `C/C(=N/NC(=O)c1ccc(C(C)(C)C)cc1)c1ccccn1`, the GFP fluorescence, lower = active (kMESF (background-subtracted)) is 45.9 (inactive).
Consider `Cc1ccc(S(=O)(=O)N2CC(C(=O)O)=CC[C@H]2c2ccc(Cl)cc2)cc1`, for which the GFP fluorescence, lower = active (kMESF (background-subtracted)) was 37.3 (inactive).
On to `CS(=O)(=O)c1nc(-c2ccccc2)cc(C(F)(F)F)n1`, for which the GFP fluorescence, lower = active (kMESF (background-subtracted)) is 31.9 (inactive).
As to `CCCc1ccc(OCC(=O)NNC(=S)NC(=O)c2ccco2)cc1`, the GFP fluorescence, lower = active (kMESF (background-subtracted)) is 30.3 (inactive).
Next, `Clc1ccc(N=c2ssnc2Cl)cc1`: 36.9 (inactive).
Take `CCc1ccc(C(=O)/C=C/c2ccc([N+](=O)[O-])o2)cc1`: the GFP fluorescence, lower = active (kMESF (background-subtracted)) is 48.7 (inactive).
In the case of `O=C1/C(=C\c2ccc(O)c(O)c2)SC(=S)N1Cc1ccccc1`, the GFP fluorescence, lower = active (kMESF (background-subtracted)) was 1.52 (inactive).
Next, `O=C(C#Cc1cccc([N+](=O)[O-])c1)c1ccccc1`: 41.3 (inactive); `O=C1NC(=O)N(CCc2ccc(F)cc2)C(=O)/C1=C/c1cccs1`: 38.2 (inactive).
The result for `COC(=O)CCCC1=CC2=CC(=O)C(C)(OC(=O)CCc3ccccc3)C(=O)C2=CO1` (centres undefined) reads 42.8 (inactive).
Next, `Cc1c(NC2=C(Cl)C(=O)N(c3ccccc3Cl)C2=O)c(=O)n(-c2ccccc2)n1C`: 38.7 (inactive); `COc1ccc(/C=C/C(=O)C2C(=O)C=C(C)OC2=O)cc1O` (centres undefined): 39 (inactive).
As to `CCOC(=O)c1ccc(N=Cc2nc(-c3ccccc3)oc2OC(C)=O)cc1`, the GFP fluorescence, lower = active (kMESF (background-subtracted)) is 41.6 (inactive).
Take `Cc1cc(C)c(C)c(S(=O)(=O)ON2C(=O)c3ccccc3C2=O)c1C`: the GFP fluorescence, lower = active (kMESF (background-subtracted)) is 49.1 (inactive).
The result for `O=C(CCS(=O)(=O)c1ccccc1)Nc1nc(-c2ccccn2)cs1` reads 37.8 (inactive); that for `COc1ccc(C(=O)NNC(=S)NC(=O)/C=C/c2cccs2)cc1`, 47.4 (inactive); that for `COc1ccc(NC(=O)/C(C#N)=C/c2ncc([N+](=O)[O-])n2C)c(OC)c1`, 41.5 (inactive).
In the case of `CN(O)/C=c1/ccc2c(n1)C(=O)C=CC=2`, the GFP fluorescence, lower = active (kMESF (background-subtracted)) was 39.2 (inactive).
The result for `Cc1nc2ccc(NC(=O)c3oc4ccc(F)cc4c3C)cc2s1` reads 39 (inactive).
For `C=CCN1C(=O)/C(=C/c2cccs2)C(=O)NC1=S`, the GFP fluorescence, lower = active (kMESF (background-subtracted)) is 15.8 (inactive).
As to `Cc1ccc(C(=O)Oc2oc(-c3ccccc3)nc2C=Nc2ccc(N(C)C)cc2)cc1`, the GFP fluorescence, lower = active (kMESF (background-subtracted)) is 38.8 (inactive).
For `Cc1cccc(Nc2nc(-c3ccccn3)cs2)n1`, the GFP fluorescence, lower = active (kMESF (background-subtracted)) was 29.8 (inactive).
The result for `COc1cc(NC(=O)c2ccc(C)cc2)ccc1NC(=O)c1cc2ccccc2o1` reads 40.8 (inactive); that for `C=CCOc1ccccc1C(=O)/C=C1/C(=O)Nc2ccccc21`, 41.5 (inactive).
The result for `O=C(Oc1ccnc2cc(Cl)ccc12)N1CCOCC1` reads 37.6 (inactive).
